The source of these data is patent US4001428A, “Cyclopropane derivatives and use thereof as cell membrane mobility agents” (Polymer Sciences Corporation, priority 1974, dated 1977).

Structures are written as SMILES.

The test system of one data set is hen red blood cells. As to the kind of experiment: Fusion of hen red blood cells. It counts as cell-based. Particulars: 0.125 to 0.5 μl/cc of cell suspension, 37° C. As to the method: (§1) Blood from the brachial vein of adult hens was mixed with heparin (as anticoagulant), centrifuged and the buffy coat removed. The erythrocytes were washed twice with 150 mM NaCl and once with buffer containing 76 mM sodium acetate, 70 mM NaCl, 1 mM CaCl2 and 100 mg/cc Dextran (MW 70,000) Pharmacia, Uppsala, Sweden (pH 5.7). The buffer is similar to but simpler than that used in a similar procedure by Lucy et al. The cells were resuspended in the same buffer and mixed with an equal volume of a suspension of the mobility agent A2 C dispersed in 150 mM NaCl by sonication. […] The final concentrations of A2 C used ranged between 0.06μl to 0.5 μl/cc containing 2-3 × 10^8 cells, 0.5 mM CaCl2, 38 mM sodium acetate, 110 mM NaCl and dextran (50 mg/cc). Cell suspensions were incubated at the desired temperature, mixed gently every 5 - 15 minutes and aliquots removed at intervals for viewing and photography at room temperature.

For another data set, the system named is lymphocytes. Nature of the data set: Viability/cytotoxicity of lymphocytes, dye-exclusion test with trypan blue. Particulars: 60 minutes incubation, FIG. 1. Type of data set: cell-based. On the procedure: The viability of the cells thus incubated was evaluated by the dye-exclusion test, using trypan blue.
In another data set the test system is rabbit lymphocytes. Nature of the data set: Cap formation on lymphocytes treated with fluorescent antibody (membrane mobility). It counts as cell-based. As to the method:
Cap formation was followed on rabbit lymphocytes preincubated for various periods of time with one of the compounds, then treated with fluorescent antibody. At least 20 minutes preincubation with the aqueous dispersion of agent A2 C were required to produce a change in the observed rate from that of the control and between 1 and 2 h incubation was required for maximum response. A 1-h period was utilized in most experiments.
FIG. 2 illustrates the rate of cap formation in lymphocytes treated with A2 C. In each of these experiments rabbit blood was anticoagulated with heparin (200 I.U./cm^3) and diluted with NaCl-phosphate buffer, pH 7.3 (137 mM NaCl-1.8 mM KH2 PO4 -8.2 mM Na2 HPO4) to 40% of original volume. Diluted blood was layered over sodium metrizoate (Nyegaard, Oslo, Norway)-Ficoll (Pharmacia, Uppsala, Sweden) mixture (containing 6.3% Ficoll and 10% sodium metrizoate), and centrifuged for 30 min. at 400 g at 25° C. Cells collected from the interphase contained over 80% lymphocytes. Cells were centrifuged, washed 3 times in buffer containing albumin and resuspended in the same or A2 C buffer. (A2 C was suspended in buffer (with Vortex) and albumin added). Final concentrations: lymphocytes 10^7 cells/cm^3.A2 C 0.02-0.2 μl/cm^3, 0.2% albumin, 5 mM glucose. Usual sample volume: 0.2 cm^3. The cell suspension was incubated at 22° or 24° C for 60 min. […] Expt I: 0.1 1 A 2 C per cm^3; (log concn -3.7); temp. 22 C. Expt II: 0.02 and 0.2 A2 C per cm^3; temp. 24° C. Expt III: 0.2 A2 C per cm^3; temp. 24° C.

Data set [1] is described as follows: Retained activity of sonicated suspension. Type of data set: physicochemical. Particulars: dispersed in 150 mM NaCl by sonication, ca. 2 min. On the procedure:
as §1

A further data set relates to mastocytoma. As to the kind of experiment: Agglutination of mastocytoma cells by wheat germ agglutinin and cap formation. Type of data set: cell-based. From the text: Some malignant cells, like mastocytoma, agglutinate in the presence of wheat germ agglutinin.
The next data set has as its system neurotransmitter release. Nature of the data set: Neurotransmitter release from cells. Type of data set: cell-based. From the text: Many intracellular agents are released from cells at rates which are below that desirable for optimum bilogical activity. […] For example, the use of the membrane mobility agents of the invention on brain tissue would lead to more efficient response to pharmacologically-active compounds and stimuli (such as electrical stimuli) on such brain tissue.

In a further data set the test system is glutathione. The note with it: within cells; cited from earlier work.

Regarding `CCCCCCCCC1CC1CCCCCCCC(=O)OCCOCCOC` (stereo not shown) [A2 C, 2-(2-methoxy)-ethoxyethyl 8-(2-n-octylcyclopropyl octanoate], in the data set on hen red blood cells, the “extent of erythrocytes eventually involved in fusion” value is recorded as “most of the erythrocytes”; the “fusion of erythrocytes, degree of fusion” value is “increasing degrees of fusion, starting with binucleated, trinucleated and tetranucleated cells and proceeding to multi-nucleated cells”; the “rounding and swelling of the cells” value is “rounding and swelling of the cells”. Besides, the “cytotoxicity on lymphocytes relative to concentration affecting mobility” value with lymphocytes is “toxic at concentrations considerably above that at which maximum effect on mobility was observed”. The “rate of cap formation in treated cells, increase over controls” value with rabbit lymphocytes (0.02-0.2 μl/cm^3, 60 min incubation at 22° or 24° C, FIG. 2) is listed as at most 50%. In the data set with rabbit lymphocytes (FIG. 2), the “effect of inherent "high" or "low" capacity for cap formation on the effects of the agent” value is “does not alter the effects produced by the mobility agent” and the “initial state of treated cells, extrapolation to zero cap formation time” value was “might be initially more "prepared" to form caps than the control cells”. The “preincubation time required to produce a change in the observed rate of cap formation from that of control” value in the data set with rabbit lymphocytes (aqueous dispersion of agent, rabbit lymphocytes) was “At least 20 minutes”. In addition, the “activity of sonicated suspension over time” value in data set [1] is on record as “remains active for several hours”. In the data set on mastocytoma, the “cap formation on mastocytoma cells” value is on record as “cause caps to form”. For the same compound, the extent of agglutination result in the data set on mastocytoma (wheat germ agglutinin) was “diminish the extent of agglutination”. Also, the neurotransmitter release entry in the data set on neurotransmitter release was “augmented by a small factor”.

For `CCCCCCCCC1CC1CCCCCCCCOCCOCCOC` (stereo not shown) [A2 CE, 2-(2-methoxy)-ethoxyethyl 8-(2-n-octylcyclopropyl)-n-octyl ether], in the data set on rabbit lymphocytes (standard incubation period, FIGS. 3 and 4), the “effect on cap formation / effectiveness as membrane mobility agent” value is on record as “less than the ester A1 C in effect”.

Regarding `CCCCCCCCCCCCCCCCCC(=O)OCCOCCOC` [A2 S, 2-(2-methoxy)-ethoxyethyl octadecanoate, reference compound], the “membrane mobility activity (active/inactive)” value with rabbit lymphocytes (classification of compounds of Table I) is “inactive”.

For the compound `CCCCCCCCC1CC1CCCCCCCC(=O)OCCOCCOCCOC` (stereo not shown) [A3 C, 2-[2-(2-methoxy)-ethoxy]ethoxyethyl 8-(2-n-octycyclopropyl)-octanoate], the “cytotoxicity on lymphocytes relative to concentration affecting mobility” value with lymphocytes is “toxicity with amounts close to that at which an effect on mobility was seen”.

As to `CN1CCN(C(=O)N=NC(=O)N2CCN(C)CC2)CC1` [DIP, diazene dicarboxylic acid bis(N'-methylpiperazide)], the “oxidation of intracellular glutathione” value in the data set on glutathione is recorded as “oxidizes the glutathione within cells to glutathione disulfide”.
